In data set [1] the test system is human renal proximal tubule epithelial cells HK-2. The data set is described as follows: In vitro cytotoxicity MTT assay on HK-2 cells. Particulars: 48 h, 30.00 μM equivalent dose, FIGS. 6A-6B. It is filed as cell-based. As to the method:
HK-2 cells were cultured in a DMEM/F12 medium containing 10% (V/V) fetal bovine serum (FBS), 100 μg/mL streptomycin, and 100 IU/mL penicillin, followed by incubation at 37° C. in a humidified atmosphere with 5% CO2.
HK-2 cells in the logarithmic growth phase were digested with 0.25% (W/V) trypsin and 0.02% EDTA (W/V), diluted into 7.0×10^4 cell/mL cell suspension with DMEM/F12 medium containing 10% (V/V) FBS, and transferred into a 96-well plate for 200 μL per well. After incubation in the 37° C. incubator with 5% CO2 for 24 hours, the medium comprising different concentration of test compounds were added into the wells. Under these conditions, the maximum final drug concentration in the assay was 30.00 μM. The experiment was performed in triplicate. After further incubation for 48 hours, other steps were the same as Example 1.

The test system of data set [2] is hepatic fibrosis in KM mice induced by bile duct ligation (BDL). The data set can be described thus: Hepatic fibrosis in KM mice induced by bile duct ligation (BDL). In kind it is in vivo. Particulars: 10 days, scale 0-6. Here is the method:
SPF grade KM mice, healthy, male, with a body weight of 20±2 g, were purchased from Henan Experimental Animal Center. (License No. SOCK (Yu) 2017-0001).
After KM mice were fed ad libitum for 3 days, they were randomly divided into multiple groups including a sham-operated control group, a model group, an AD control group, and different compound-administered groups, six mice per group. The sham operation group and the model group were administered with 0.5% Sodium CMC (Na CMC) via gavage, and the other administration groups were administered 0.5% CMC-Na suspension of the corresponding drug, and the administration lasted for 10 days. Mice should be strictly fasting with nothing but water 12 hours prior to surgery. The mice were anesthesia by intraperitoneally injecting with 0.5% sodium pentobarbital. After limb immobilization in a supine position, the anesthetized mice were prepared. The abdomen of the mice was shaved and then swabbed with iodine to sterilize the skin regions. After spreading of surgery cloth, the abdomen was opened along the abdominal wall in the midline. The duodenum was found along the stomach, then pull upwards to just separate from the common bile duct. Double-ligated with 4/0 silk thread and disconnected the common bile duct with a distance of 0.5 cm away from the hepatic hilum. Following the examination for no bleeding and bile leakage, the 3/0 silk thread continuous suture method was used to close the abdomen layer by layer. The wound was swabbed with iodine, and the mice rest in a 37° C. warm environment until the animals were fully awake. […] Drugs were administrated by gavage on an empty stomach in the morning every day, and were given daily for 10 days. The liver was quickly excised after blood collection. The collected blood was allowed to stand in an incubator 37° C. for 45 min, and then the upper serum was collected by centrifugation at 3500 rpm for 15 min at 4° C. The liver of the lower left lobe of the mice was fixed in 10 times volume of 4% paraformaldehyde fixative, and the fixative was changed after 24 h. Pathological sections were obtained after fixation. Each section was stained with hematoxylin-eosin stain (HE) and Sirius red to observe fibrosis levels and pathological change in the liver. […] Collagen deposition was measured with Sirius red staining, and positive expression was semi-quantitatively analyzed by Image-Pro Plus. […]

The subject of data set [3] is silica-induced pulmonary fibrosis in KM mice. The data set can be described thus: Silica-induced pulmonary fibrosis in KM mice. It is filed as in vivo. Particulars: AD at equivalent dose (40 or 120 mg/kg) ig 21 days. Here is the method: SPF grade KM mice, healthy, male, with a body weight of 20±2 g, were purchased from Henan Experimental Animal Center. (License No. SOCK (Yu) 2017-0001). Silica was heated at 250° C. for 1 hour to remove endotoxin. After autoclaving the heated silica was suspended in physiological saline to yield a final concentration of 75 mg/mL suspension, and stored at 4° C. for use. The suspension was shaken and sonicated for 30 minutes prior to injection.
After mice were fed ad libitum for 3 days, they were randomly divided into six groups including a sham-operated control group, a model group, different groups of the compounds of the disclosure, eight mice per group. The mice were anesthetized with intraperitoneal injection of 0.5% sodium pentobarbital (50 mg/kg). After the immobilization in a supine position, the anesthetized mice were prepared. The neck of the mice was shaved and then swabbed with iodine to sterilize the skin regions. An incision with a length of about 1 cm was made along the neck for separating bronchus. A silica suspension proportional (150 mg/kg) to the body weight, and 100 μL of air was immediately injected into the trachea through the cartilage space of mice. After the muscle was reset, the mice were quickly rotated for 2 minutes to evenly distribute the silica. […] Mice lung was collected, weighed and the pulmonary lesion was measured. […]

Setting [4] is: 15 mg/kg ig, model group mean score 4.25.

On to `C=C1CC[C@@H]2[C@](C)(CO)[C@H](O)CC[C@@]2(C)[C@@H]1C/C=C1/C(=O)OC[C@H]1O` [AD, andrographolide], for which the “inhibitory effect on proliferation of HK-2 cells compared with AD” value (“inhibitory effect … compared with AD” for short) in data set [1] is on record as “lower inhibitory activity against the cell proliferation”. Also, the “fibrosis pathological score for liver tissue section (mean)” value (“fibrosis pathological score” for short) is 2.83 in data set [2] (15 mg/kg ig, model group mean score 4.8) and 2.10 in data set [2] (40 mg/kg ig, model group mean score 4.8). For the same compound, in data set [3], the pulmonary fibrosis score is 3.8-4.9.
`CC1=CCC2C(C)(CO)C(O)CCC2(C)C1C=CC1=CC(=Cc2ccc(F)cc2)OC1=O` (centres unmarked) [ADC-5]: the “inhibitory effect … compared with AD” value in data set [1] is listed as “higher inhibitory effect on proliferation of HK-2 cells than the parent compound AD”.
On to `CC1=CCC2C(C)(CO)C(O)CCC2(C)C1C=CC1=CC(=Cc2ccc(F)c(F)c2)OC1=O` (centres unmarked) [ADC-6], for which, in data set [1], the “inhibitory effect … compared with AD” value is given as “higher inhibitory effect on proliferation of HK-2 cells than the parent compound AD”.
For the compound `COc1ccc(C=C2C=C(C=CC3C(C)=CCC4C(C)(CO)C(O)CCC34C)C(=O)O2)cc1` (centres unmarked) [ADC-11], the “inhibitory effect … compared with AD” value in data set [1] was “higher inhibitory effect on proliferation of HK-2 cells than the parent compound AD”.
Turning to `CC1=CCC2C(C)(CO)C(O)CCC2(C)C1C=CC1=CC(=Cc2ccccc2O)OC1=O` (centres unmarked) [ADC-12], the “inhibitory effect … compared with AD” value in data set [1] is on record as “higher inhibitory effect on proliferation of HK-2 cells than the parent compound AD”.
Turning to `CC12CCC3C(CCC(O)C3(C)CO)C1CC(C1=CC(=Cc3ccc(Br)cc3)OC1=O)O2` (centres unmarked) [ADY-2], in data set [1], the “inhibitory effect … compared with AD” value is “higher inhibitory effect on proliferation of HK-2 cells than the parent compound AD”.
On the same count and under the same terms, to `CC12CCC3C(CCC(O)C3(C)CO)C1CC(C1=CC(=Cc3ccccc3)OC1=O)O2` (centres unmarked) [ADY-5] belongs “higher inhibitory effect on proliferation of HK-2 cells than the parent compound AD”.
With `CC12CCC3C(CCC(O)C3(C)CO)C1CC(C1=CC(=Cc3ccc(F)c(F)c3)OC1=O)O2` (centres unmarked) [ADY-6], the “inhibitory effect … compared with AD” value in data set [1] is listed as “higher inhibitory effect on proliferation of HK-2 cells than the parent compound AD”.
With `COc1cccc(C=C2C=C(C3CC4C5CCC(O)C(C)(CO)C5CCC4(C)O3)C(=O)O2)c1` (centres unmarked) [ADY-7], the “fibrosis pathological score” value in data set [2] (setting [4]) was 0.4.
As to `CC12CCC3C(CCC(O)C3(C)CO)C1CC(C1=CC(=Cc3ccc(O)cc3)OC1=O)O2` (centres unmarked) [ADY-8], the “inhibitory effect … compared with AD” value in data set [1] was “higher inhibitory effect on proliferation of HK-2 cells than the parent compound AD”.
As for `COc1ccc(C=C2C=C(C3CC4C5CCC(O)C(C)(CO)C5CCC4(C)O3)C(=O)O2)cc1` (centres unmarked) [ADY-12], the “fibrosis pathological score” value in data set [2] (setting [4]) amounted to 1.4.

Source of the values: patent US11279695B2, “Andrographolide compound and method for treatment or prevention of fibrotic disease using the same” (Zhengzhou University, priority 2018, dated 2022).
